System: K86415-001-R-J1-PDC complex spheroids, viability
Experiment: Anticancer human tumor K86415-001-R-J1-PDC patient-derived lung adenocarcinoma cell line growth inhibition [RAS]
Conditions: for IC50: curve of first compound; for viability, T/C: stronger effect = lower value
Procedure, shortened: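 Multi-cell-type spheroids: tumor cells plus HUVEC endothelial cells and mesenchymal stem cells. RAS-pathway inhibitors were combined with targeted agents, each dosed in half-log steps down from clinical Cmax, or from 10 microM when Cmax was unknown.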

[1] = second compound 0.000949 µM, first compound 0.0316 µM
[2] = second compound 0.000949 µM, first compound 0.1 µM
[3] = second compound 0.000949 µM, first compound 0.316 µM
[4] = second compound 0.000949 µM, first compound 1 µM
[5] = second compound 0.000949 µM, first compound 3.16 µM
[6] = second compound 0.000949 µM, first compound 10 µM
[7] = second compound 0.003 µM, first compound 0.0316 µM
[8] = second compound 0.003 µM, first compound 0.1 µM
[9] = second compound 0.003 µM, first compound 0.316 µM
[10] = second compound 0.003 µM, first compound 1 µM
[11] = second compound 0.003 µM, first compound 3.16 µM
[12] = second compound 0.003 µM, first compound 10 µM
[13] = second compound 0.00949 µM, first compound 0.0316 µM
[14] = second compound 0.00949 µM, first compound 0.1 µM
[15] = second compound 0.00949 µM, first compound 0.316 µM
[16] = second compound 0.00949 µM, first compound 1 µM
[17] = second compound 0.00949 µM, first compound 3.16 µM
[18] = second compound 0.00949 µM, first compound 10 µM
[19] = second compound 0.03 µM, first compound 0.0316 µM
[20] = second compound 0.03 µM, first compound 0.1 µM
[21] = second compound 0.03 µM, first compound 0.316 µM
[22] = second compound 0.03 µM, first compound 1 µM
[23] = second compound 0.03 µM, first compound 3.16 µM
[24] = second compound 0.03 µM, first compound 10 µM
[25] = second compound 0.0949 µM, first compound 0.0316 µM
[26] = second compound 0.0949 µM, first compound 0.1 µM
[27] = second compound 0.0949 µM, first compound 0.316 µM
[28] = second compound 0.0949 µM, first compound 1 µM
[29] = second compound 0.0949 µM, first compound 3.16 µM
[30] = second compound 0.0949 µM, first compound 10 µM
[31] = second compound 0.3 µM, first compound 0.0316 µM
[32] = second compound 0.3 µM, first compound 0.1 µM
[33] = second compound 0.3 µM, first compound 0.316 µM
[34] = second compound 0.3 µM, first compound 1 µM
[35] = second compound 0.3 µM, first compound 3.16 µM
[36] = second compound 0.3 µM, first compound 10 µM
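Note: spheroids exposed to agents for seven days before readout.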

`CCC(CC)c1cc(NC2CCC(N)C2)n2nccc2n1` (centres undefined) + CCn1c(-c2cc(N3CCN(C)CC3)cnc2C(C)OC)c2c3cc(ccc31)-c1csc(n1)CC(NC(=O)C1CC1C)C(=O)N1CCCC(N1)C(=O)OCC(C)(C)C2 was tested, and the IC50 (second compound 0.000949 µM) was 1180 nM, the IC50 (second compound 0.003 µM) was < 31.6 nM and the IC50 (second compound 0.00949 µM) was < 31.6 nM. For the same molecule, the IC50 (second compound 0.03 µM) was < 31.6 nM, the IC50 (second compound 0.0949 µM) was < 31.6 nM and the IC50 (second compound 0.3 µM) was < 31.6 nM. The viability, T/C [1] was 46.1%, the viability, T/C [2] was 48.5% and the viability, T/C [3] was 56.8%. It also gave a viability, T/C [4] of 79%, a viability, T/C [5] of 3.84% and a viability, T/C [6] of 4.58%. The viability, T/C [7] was 25.1%, the viability, T/C [8] was 26.1% and the viability, T/C [9] was 27.8%. The viability, T/C [10] was 36.2%, the viability, T/C [11] was 4.27% and the viability, T/C [12] was 4.26%. The viability, T/C [13] was 9.9%, the viability, T/C [14] was 11.2% and the viability, T/C [15] was 12.9%. For the same molecule, the viability, T/C [16] was 11.8%, the viability, T/C [17] was 3.06% and the viability, T/C [18] was 3.75%. It also gave a viability, T/C [19] of 5.14%, a viability, T/C [20] of 6.25% and a viability, T/C [21] of 7.94%. For the same molecule, the viability, T/C [22] was 6.31%, the viability, T/C [23] was 3.03% and the viability, T/C [24] was 3.65%. For the same molecule, the viability, T/C [25] was 4.23%, the viability, T/C [26] was 3.98% and the viability, T/C [27] was 3.55%. The viability, T/C [28] was 2.72%, the viability, T/C [29] was 2.97% and the viability, T/C [30] was 3.31%. The viability, T/C [31] was 2.9%, the viability, T/C [32] was 2.91% and the viability, T/C [33] was 3.27%. It also gave a viability, T/C [34] of 2.5%, a viability, T/C [35] of 4.29% and a viability, T/C [36] of 3.48%.

In the case of `CC1(O)CCCC1n1c(=O)c(C(F)F)cc2cnc(NC3CCN(S(C)(=O)=O)CC3)nc21` (centres undefined) + CCn1c(-c2cccnc2C(C)OC)c2c3cc(ccc31)N1CCOC(CC(NC(=O)C(C(C)C)N(C)C(=O)C3(F)CCN(C(=O)C#CC(C)(C)N(C)C)CC3)C(=O)N3CCCC(N3)C(=O)OCC(C)(C)C2)C1, the IC50 (second compound 0.000949 µM) is reported as < 31.6 nM, the IC50 (second compound 0.003 µM) is reported as < 31.6 nM and the IC50 (second compound 0.00949 µM) is reported as < 31.6 nM. The IC50 (second compound 0.03 µM) was < 31.6 nM, the IC50 (second compound 0.0949 µM) was < 31.6 nM and the IC50 (second compound 0.3 µM) was < 31.6 nM. The viability, T/C [1] was 30.1%, the viability, T/C [2] was 32.6% and the viability, T/C [3] was 21.6%. The viability, T/C [4] was 38.8%, the viability, T/C [5] was 48.3% and the viability, T/C [6] was 4.79%. For the same molecule, the viability, T/C [7] was 12.8%, the viability, T/C [8] was 11.3% and the viability, T/C [9] was 14.8%. It also gave a viability, T/C [10] of 17.3%, a viability, T/C [11] of 25% and a viability, T/C [12] of 4.45%. It also gave a viability, T/C [13] of 13.9%, a viability, T/C [14] of 10.5% and a viability, T/C [15] of 12.7%. It also gave a viability, T/C [16] of 18.9%, a viability, T/C [17] of 19.8% and a viability, T/C [18] of 4.71%. It also gave a viability, T/C [19] of 13.7%, a viability, T/C [20] of 13.3% and a viability, T/C [21] of 14.6%. The viability, T/C [22] was 15.6%, the viability, T/C [23] was 18.1% and the viability, T/C [24] was 4.45%. For the same molecule, the viability, T/C [25] was 11.3%, the viability, T/C [26] was 15% and the viability, T/C [27] was 11.6%. For the same molecule, the viability, T/C [28] was 20.2%, the viability, T/C [29] was 14.9% and the viability, T/C [30] was 5.12%. The viability, T/C [31] was 13%, the viability, T/C [32] was 14.5% and the viability, T/C [33] was 12.7%. The viability, T/C [34] was 14.6%, the viability, T/C [35] was 17.6% and the viability, T/C [36] was 3.94%.

Reference: PubChem BioAssay AID2060893 (Molecular Pharmacology Branch, DTP, NCI, 2025)
